Among the test systems are HCT-15 colon; SR leukemia; MALME-3M melanoma; ACHN renal; COLO 205 colon; MOLT-4 leukemia; IGROV1 ovarian; SF-295 CNS; LOX IMVI melanoma.
Assay in all cases: NCI tumour cell line growth inhibition, 48 h

Structures are written as SMILES.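 Tested at 5 concentrations; 48 h exposure; 96-well plates; endpoints linearly interpolated, else capped at highest concentration. GI50 is the concentration that inhibits growth by half. At the TGI there is no net growth.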 A value given as a limit tells only on which side of the number the result lay.

For `C=CCC(C)(C(=O)NCCC)C(=O)c1ccccc1O` (stereo unspecified), the TGI in the test on HCT-15 colon, in the test with SR leukemia, in the test on MALME-3M melanoma, in the test on ACHN renal, with COLO 205 colon and with MOLT-4 leukemia was over 100 µM each time. The molecule also showed a TGI in the test with IGROV1 ovarian of over 100 µM.

In the case of `O=C1c2ccccc2C2(O)Oc3cccc(O)c3C12O` (stereo unspecified), the TGI in the test with HCT-15 colon, in the test on SR leukemia, with MALME-3M melanoma, with ACHN renal, in the test with SF-295 CNS and in the test with COLO 205 colon was over 100 µM throughout. The TGI in the test on LOX IMVI melanoma, in the test on MOLT-4 leukemia and in the test with IGROV1 ovarian was over 100 µM in each case.

With `Cc1nn(C)c(=O)c2nn(-c3ccccc3)c(C)c12`, the TGI in the test with HCT-15 colon, with SR leukemia, in the test with MALME-3M melanoma, with ACHN renal, in the test on SF-295 CNS and with COLO 205 colon was over 100 µM throughout. Also, the TGI in the test with LOX IMVI melanoma, with MOLT-4 leukemia and in the test with IGROV1 ovarian was over 100 µM in each case.

Regarding `CCOC(=O)C1(C(=O)OCC)CC=C(C)CC12C(=O)Nc1ccccc12` (stereo unspecified), the TGI with HCT-15 colon, in the test on MALME-3M melanoma, in the test on ACHN renal, with SF-295 CNS, with COLO 205 colon and in the test with LOX IMVI melanoma was over 100 µM each time. For the same molecule, the TGI in the test with MOLT-4 leukemia and in the test on IGROV1 ovarian was over 100 µM throughout.

Regarding `O=C1CCC(=O)C12CCc1cccc(O)c12`, the TGI with HCT-15 colon, in the test with MALME-3M melanoma, in the test on ACHN renal, in the test on SF-295 CNS, in the test on COLO 205 colon and with LOX IMVI melanoma was over 100 µM throughout. In addition, in the test on IGROV1 ovarian, the TGI is over 100 µM.

In the case of `Cn1cnc([N+](=O)[O-])c1Sc1nnc(C(F)(F)F)n1C`, the TGI is 45 µM in the test with SR leukemia; 44 µM in the test with MALME-3M melanoma; 57.4 µM with ACHN renal; over 100 µM in the test with SF-295 CNS; 28.8 µM in the test on COLO 205 colon; 30.5 µM in the test on LOX IMVI melanoma. Besides, the TGI is 38.2 µM in the test with MOLT-4 leukemia and over 100 µM with IGROV1 ovarian.

`COc1cc(C(CC(OC)OC)=C(C#N)C#N)cc(OC)c1OC`: the TGI is over 100 µM in the test with HCT-15 colon; over 100 µM in the test with SR leukemia; 76.9 µM with MALME-3M melanoma; over 100 µM in the test on ACHN renal; 62.9 µM in the test with SF-295 CNS; 26.6 µM in the test on COLO 205 colon. Besides, the TGI is 25.1 µM in the test on LOX IMVI melanoma, 33.9 µM in the test with MOLT-4 leukemia and over 100 µM with IGROV1 ovarian.

Regarding `COc1ccc(S(=O)(=O)N/N=C(\C)CN2C(=O)c3ccccc3C2=O)cc1`, the TGI in the test with HCT-15 colon, in the test with SR leukemia, in the test on MALME-3M melanoma, in the test with ACHN renal, in the test on SF-295 CNS and in the test with COLO 205 colon was over 100 µM throughout. Moreover, the TGI in the test with LOX IMVI melanoma, in the test on MOLT-4 leukemia and in the test with IGROV1 ovarian was over 100 µM in each case.

As to `CC1=N/C(=C\c2cccc3ccccc23)C(=O)O1`, the TGI in the test on HCT-15 colon, with MALME-3M melanoma, with ACHN renal, with SF-295 CNS, in the test with COLO 205 colon and in the test on MOLT-4 leukemia was over 100 µM throughout. In addition, the TGI in the test on IGROV1 ovarian is over 100 µM.

Take `CCCCCCCCCC(=O)N[C@H]1CCc2cc(OC)c(OC)c(OC)c2-c2ccc(SC)c(=O)cc21`: the TGI was 0.0901 µM in the test on HCT-15 colon, over 100 µM with ACHN renal, 0.0123 µM in the test with COLO 205 colon and over 100 µM in the test on MOLT-4 leukemia.

Regarding `COC1(OC)c2ccccc2C2(O)c3ccccc3C(=O)C12` (stereo unspecified), the TGI with HCT-15 colon is over 100 µM; in the test with SR leukemia, over 100 µM; in the test with MALME-3M melanoma it was over 100 µM; in the test with ACHN renal it was over 100 µM; in the test on SF-295 CNS, over 100 µM; with COLO 205 colon, 27 µM. Further, the TGI is over 100 µM in the test with LOX IMVI melanoma, 80.9 µM in the test on MOLT-4 leukemia and 67 µM in the test with IGROV1 ovarian.

Regarding `O=C1NC(=S)NC(=O)C1=Cc1ccc2ccccc2n1`, the TGI in the test on HCT-15 colon, with SR leukemia, with MALME-3M melanoma, with ACHN renal, in the test with SF-295 CNS and in the test with COLO 205 colon was over 100 µM in each case. Besides, the TGI with LOX IMVI melanoma, with MOLT-4 leukemia and with IGROV1 ovarian was over 100 µM throughout.

On to `COc1ccc(N2C(=O)C3c4[nH]c5ccccc5c4C4CCC(C(C)(C)C)CC4C3C2=O)cc1OC` (stereo unspecified), for which the TGI with HCT-15 colon was over 100 µM; with SR leukemia, 39.9 µM; with MALME-3M melanoma, over 100 µM; in the test with ACHN renal, 46.6 µM; with SF-295 CNS it was 42.6 µM; with COLO 205 colon it was over 100 µM. For the same molecule, the figures for the TGI with MOLT-4 leukemia and with IGROV1 ovarian were 43.9 µM and over 100 µM, respectively.

Regarding `CC1=N/C(=C\c2ccc([N+](=O)[O-])cc2)C(=O)O1`, the TGI in the test on HCT-15 colon, in the test on MALME-3M melanoma, in the test on ACHN renal, in the test on SF-295 CNS, in the test on COLO 205 colon and in the test with MOLT-4 leukemia was over 100 µM each time. In the test on IGROV1 ovarian, the TGI was over 100 µM.

For the molecule `O=C1CCC2CCOc3ccc(O)c1c32` (stereo unspecified), the TGI with HCT-15 colon, in the test on SR leukemia, with MALME-3M melanoma, in the test with ACHN renal, with SF-295 CNS and in the test with COLO 205 colon was over 100 µM each time. Moreover, the TGI with MOLT-4 leukemia and in the test with IGROV1 ovarian was over 100 µM in each case.

For `COc1cccc2c1C(=O)c1c(O)c3c(c(O)c1C2=O)C[C@@](O)(/C(C)=N\O)C[C@@H]3OC1CC(N)C(O)C(C)O1` (stereo partly specified), the TGI in the test on HCT-15 colon was over 100 µM; in the test with SR leukemia, 2.97 µM; in the test on MALME-3M melanoma, 2.41 µM; with ACHN renal, 10.8 µM; in the test on SF-295 CNS, 7.84 µM; in the test with COLO 205 colon, 3.56 µM. In addition, the TGI in the test with LOX IMVI melanoma is 6.06 µM; with MOLT-4 leukemia, 1.55 µM; in the test with IGROV1 ovarian, 17.2 µM.

In the case of `CCc1cccc(C(C)CC)c1NC(=O)CC1C(=O)Nc2ccccc2S1=O` (stereo unspecified), the TGI in the test on HCT-15 colon was over 100 µM; in the test on SR leukemia it was 73.6 µM; in the test on MALME-3M melanoma it was over 100 µM; in the test on ACHN renal, over 100 µM; with SF-295 CNS, over 100 µM; in the test with LOX IMVI melanoma, 73.7 µM. In addition, the TGI with MOLT-4 leukemia was found to be 69 µM; with IGROV1 ovarian, 78.6 µM.

Turning to `C=CCNC(=S)OCCCCCCCCCC`, the TGI in the test with HCT-15 colon amounted to 29.4 µM; in the test with SR leukemia, 78.3 µM; with MALME-3M melanoma it was 33.8 µM; with ACHN renal, 32.7 µM; with SF-295 CNS, 34.5 µM; in the test on LOX IMVI melanoma it was 26.9 µM. Also, the TGI came to 34.6 µM with MOLT-4 leukemia and 35.7 µM with IGROV1 ovarian.

Consider `COC(=O)C(=O)C(C#N)c1ccc(Cl)c(Cl)c1` (stereo unspecified), for which the TGI in the test on HCT-15 colon, with SR leukemia, in the test with MALME-3M melanoma, in the test with ACHN renal, with SF-295 CNS and in the test on LOX IMVI melanoma was over 100 µM in each case. Moreover, the TGI in the test on MOLT-4 leukemia and in the test on IGROV1 ovarian was over 100 µM in each case.

For `Cc1nn(C)c(=S)n(C)c1=O`, the TGI in the test with HCT-15 colon was over 100 µM; with MALME-3M melanoma, 37.2 µM; in the test on ACHN renal, 10.2 µM; in the test with SF-295 CNS it was over 100 µM; with COLO 205 colon it was 15.4 µM; in the test with LOX IMVI melanoma, over 100 µM. Also, the TGI was over 100 µM with MOLT-4 leukemia and 53.2 µM in the test with IGROV1 ovarian.

On to `CN(C)CCNC(=O)c1cccc2c1nc(-c1ccccn1)c1ccccc12`, for which the TGI with HCT-15 colon stood at 30.6 µM; with ACHN renal it was 35.3 µM; with SF-295 CNS, 41.1 µM; in the test on COLO 205 colon, 24.8 µM; in the test on IGROV1 ovarian, 66.6 µM.

As to `COc1ccc(-c2c(C#N)c(N)nc3c2CCCc2ccc(F)cc2-3)cc1OC`, the GI50 in the test on HCT-15 colon was under 49.7 nM; in the test on MALME-3M melanoma, under 10 nM; in the test with SF-295 CNS, under 10 nM; in the test on COLO 205 colon, 4890 nM; in the test with LOX IMVI melanoma, under 42.2 nM; with MOLT-4 leukemia, under 10 nM. The GI50 with IGROV1 ovarian was 131 nM. Also, the TGI is 0.504 µM in the test on HCT-15 colon; 19.4 µM in the test on ACHN renal; over 38.1 µM in the test with COLO 205 colon; 19.6 µM in the test on LOX IMVI melanoma; over 100 µM with MOLT-4 leukemia; over 100 µM in the test on IGROV1 ovarian.

With `O=C(O/N=C1/CCCC/C1=C\c1ccccc1)c1ccc(Cl)cc1`, the TGI with HCT-15 colon, in the test with SR leukemia, in the test on MALME-3M melanoma, in the test with ACHN renal, with SF-295 CNS and in the test on COLO 205 colon was over 100 µM throughout. Moreover, the TGI with LOX IMVI melanoma and with IGROV1 ovarian was over 100 µM throughout.

Regarding `COc1cccc(C2C(C#N)=C(N)Oc3cc(OC)ccc32)c1` (stereo unspecified), the GI50 in the test on HCT-15 colon was 36.6 nM; with SR leukemia it was 25.6 nM; with ACHN renal it was 138 nM; with SF-295 CNS, 28.6 nM; with COLO 205 colon, 46.4 nM; with LOX IMVI melanoma, 83.5 nM. Besides, the GI50 was 59.8 nM with MOLT-4 leukemia and 62.2 nM in the test on IGROV1 ovarian. For the same molecule, the TGI is over 100 µM in the test on HCT-15 colon; over 33.8 µM in the test on SR leukemia; over 100 µM in the test with ACHN renal; 33.9 µM with SF-295 CNS; 0.529 µM in the test with COLO 205 colon; over 100 µM with LOX IMVI melanoma. The TGI was over 37.4 µM in the test on MOLT-4 leukemia and over 50.9 µM with IGROV1 ovarian.

The values are drawn from PubChem BioAssay (NCI).
